Experiments:
Pyricularia oryzae = assay type: cell-based; conditions: 125 ppm active compound, microtiter plate, absorption at 405 nm on day 7 after inoculation, relative to active compound-free control
Phytophthora infestans = assay type: in vivo; conditions: 250 ppm active compound, potted tomato plants, sprayed 1 day before infection, assessed after 6 days; untreated plants 70% infected

CC(=O)Nc1c(-c2c(F)cc(F)cc2F)c(Cl)nc2ncnn12 [Example 4, N-[5-Chloro-6-(2,4,6-trifluorophenyl)(1,2,4-triazolo[1,5-a]pyrimidin-7-yl)]acetamide]
relative growth (Pyricularia oryzae): less than or equal to 1%

CCC(=O)Nc1c(-c2c(F)cc(F)cc2F)c(Cl)nc2ncnn12 [Example 5, N-[5-chloro-6-(2,4,6-trifluorophenyl)(1,2,4-triazolo-[1,5-a]pyrimidin-7-yl)]propionamide]
infection (Phytophthora infestans): less than or equal to 15%
